ChEMBL document CHEMBL3885861, “Open TG-GATES”

Species: Rattus norvegicus
Experiment: Open TG-GATES - Regimen: Daily Repeat
Format: toxicity, organism-based, Sprague-Dawley
Design: regimen Daily Repeat, gender Male, age 6 weeks
Conditions: in vivo, po, 100 mg/kg, route gavage, dose level Middle; for APTT / Bas / Eos / Fbg / Hb / Ht / Lym / MCH / MCHC / MCV / Mono / Neu / PT / Plat / RBC / Ret / WBC: tissue Blood; for KIDNEY_L / KIDNEY_R / KIDNEY_TOTAL: tissue Kidney; for LIVER: tissue Liver; for ALP / ALT / AST / BUN / CRE / DBIL / GLC / IP / K / LDH / Na / PL / RALB / TBIL / TC / TG / TP / gamma-GTP: tissue Plasma

For Clc1ccccc1CN1CCc2sccc2C1 [TICLOPIDINE], the TERMINAL_BW (72 h, time 3 day) was 224.9 g, the APTT (72 h, time 3 day) was 21.3 s and the Bas (72 h, time 3 day) was 1%. The Eos (72 h, time 3 day) was 1%, the Fbg (72 h, time 3 day) was 224 mg/dL and the Hb (72 h, time 3 day) was 13.4 g/dL. It also gave a Ht (72 h, time 3 day) of 37.8%, a Lym (72 h, time 3 day) of 80.6% and an MCH (72 h, time 3 day) of 21.5 pg. For the same compound, the MCHC (72 h, time 3 day) was 35.5%, the MCV (72 h, time 3 day) was 60.4 fL and the Mono (72 h, time 3 day) was 2.6%. For the same compound, the Neu (72 h, time 3 day) was 14.6%, the PT (72 h, time 3 day) was 11.3 s and the Plat (72 h, time 3 day) was 125.6 x10_4/uL. It also gave an RBC (72 h, time 3 day) of 626.4 x10_4/ul, a Ret (72 h, time 3 day) of 5.6% and a WBC (72 h, time 3 day) of 100.7 x10_2/uL. The KIDNEY_L (72 h, time 3 day) was 1 g, the KIDNEY_R (72 h, time 3 day) was 1 g and the KIDNEY_TOTAL (72 h, time 3 day) was 1.9 g. The LIVER (72 h, time 3 day) was 11.8 g, the ALP (72 h, time 3 day) was 968 IU/L and the ALT (72 h, time 3 day) was 38.2 IU/L. The AST (72 h, time 3 day) was 65.8 IU/L, the BUN (72 h, time 3 day) was 15.4 mg/dL and the CRE (72 h, time 3 day) was 0.4 mg/dL. For the same compound, the DBIL (72 h, time 3 day) was 0.07 mg/dL, the GLC (72 h, time 3 day) was 195.6 mg/dL and the IP (72 h, time 3 day) was 7.3 mg/dL. For the same compound, the K (72 h, time 3 day) was 4 meq/L, the LDH (72 h, time 3 day) was 152.8 IU/L and the Na (72 h, time 3 day) was 142.2 meq/L. For the same compound, the PL (72 h, time 3 day) was 162.6 mg/dL, the RALB (72 h, time 3 day) was 3.3 g/dL and the TBIL (72 h, time 3 day) was 0.1 mg/dL. The TC (72 h, time 3 day) was 89.8 mg/dL, the TG (72 h, time 3 day) was 69.8 mg/dL and the TP (72 h, time 3 day) was 5.5 g/dL. The gamma-GTP (72 h, time 3 day) was 0.8 IU/L, the TERMINAL_BW ([…], time 7 day) was 258 g and the TERMINAL_BW ([…], time 14 day) was 306.1 g. The TERMINAL_BW ([…], time 28 day) was 394.5 g, the APTT ([…], time 7 day) was 22.3 s and the Bas ([…], time 7 day) was 0.6%. For the same compound, the Eos ([…], time 7 day) was 0.8%, the Fbg ([…], time 7 day) was 227.4 mg/dL and the Hb ([…], time 7 day) was 13.6 g/dL. It also gave a Ht ([…], time 7 day) of 38.2%, an MCH ([…], time 7 day) of 21.4 pg and an MCHC ([…], time 7 day) of 35.5%. The MCV ([…], time 7 day) was 60.4 fL, the Mono ([…], time 7 day) was 2.6% and the Neu ([…], time 7 day) was 13%. For the same compound, the PT ([…], time 7 day) was 11.6 s, the Plat ([…], time 7 day) was 123.7 x10_4/uL and the RBC ([…], time 7 day) was 633.2 x10_4/ul. It also gave a Ret ([…], time 7 day) of 5.4%, a WBC ([…], time 7 day) of 117.5 x10_2/uL and an APTT ([…], time 14 day) of 19.9 s. The Bas ([…], time 14 day) was 0.8%, the Eos ([…], time 14 day) was 0.8% and the Fbg ([…], time 14 day) was 220.4 mg/dL. The Hb ([…], time 14 day) was 14.5 g/dL, the Ht ([…], time 14 day) was 40.6% and the Lym ([…], time 14 day) was 80.6%. It also gave an MCH ([…], time 14 day) of 21.3 pg, an MCHC ([…], time 14 day) of 35.7% and an MCV ([…], time 14 day) of 59.6 fL. For the same compound, the Mono ([…], time 14 day) was 2.2%, the Neu ([…], time 14 day) was 15.4% and the PT ([…], time 14 day) was 11.8 s. The Plat ([…], time 14 day) was 114.3 x10_4/uL, the RBC ([…], time 14 day) was 681 x10_4/ul and the Ret ([…], time 14 day) was 4.3%. It also gave a WBC ([…], time 14 day) of 108.6 x10_2/uL, an APTT ([…], time 28 day) of 18.7 s and a Bas ([…], time 28 day) of 1%. For the same compound, the Eos ([…], time 28 day) was 0.8%, the Fbg ([…], time 28 day) was 219.8 mg/dL and the Hb ([…], time 28 day) was 15.3 g/dL. The Ht ([…], time 28 day) was 41.1%, the Lym ([…], time 28 day) was 81.6% and the MCH ([…], time 28 day) was 20 pg. The MCHC ([…], time 28 day) was 37.4%, the MCV ([…], time 28 day) was 53.4 fL and the Mono ([…], time 28 day) was 2.2%. It also gave a Neu ([…], time 28 day) of 13.6%, a PT ([…], time 28 day) of 11.6 s and a Plat ([…], time 28 day) of 114.7 x10_4/uL. The RBC ([…], time 28 day) was 770 x10_4/ul, the Ret ([…], time 28 day) was 3% and the WBC ([…], time 28 day) was 136.4 x10_2/uL. The KIDNEY_L ([…], time 7 day) was 1.2 g, the KIDNEY_R ([…], time 7 day) was 1.2 g and the KIDNEY_TOTAL ([…], time 7 day) was 2.3 g. The KIDNEY_L ([…], time 14 day) was 1.2 g, the KIDNEY_R ([…], time 14 day) was 1.2 g and the KIDNEY_TOTAL ([…], time 14 day) was 2.5 g. It also gave a KIDNEY_L ([…], time 28 day) of 1.5 g, a KIDNEY_R ([…], time 28 day) of 1.5 g and a KIDNEY_TOTAL ([…], time 28 day) of 3 g. It also gave an LIVER ([…], time 7 day) of 13 g, an LIVER ([…], time 14 day) of 14.1 g and an LIVER ([…], time 28 day) of 17.9 g. The ALP ([…], time 7 day) was 969.2 IU/L, the ALT ([…], time 7 day) was 39.4 IU/L and the AST ([…], time 7 day) was 73.2 IU/L. For the same compound, the BUN ([…], time 7 day) was 14.8 mg/dL, the CRE ([…], time 7 day) was 0.4 mg/dL and the DBIL ([…], time 7 day) was 0.068 mg/dL. For the same compound, the GLC ([…], time 7 day) was 192.6 mg/dL, the IP ([…], time 7 day) was 7.2 mg/dL and the K ([…], time 7 day) was 3.9 meq/L. The LDH ([…], time 7 day) was 144.8 IU/L, the Na ([…], time 7 day) was 142.4 meq/L and the PL ([…], time 7 day) was 145.4 mg/dL. The RALB ([…], time 7 day) was 3.5 g/dL, the TBIL ([…], time 7 day) was 0.1 mg/dL and the TC ([…], time 7 day) was 74.8 mg/dL. For the same compound, the TG ([…], time 7 day) was 68.2 mg/dL, the TP ([…], time 7 day) was 5.7 g/dL and the gamma-GTP ([…], time 7 day) was 0.8 IU/L. For the same compound, the ALP ([…], time 14 day) was 792.6 IU/L, the ALT ([…], time 14 day) was 36.6 IU/L and the AST ([…], time 14 day) was 68.8 IU/L. It also gave a BUN ([…], time 14 day) of 15.8 mg/dL, a CRE ([…], time 14 day) of 0.4 mg/dL and a DBIL ([…], time 14 day) of 0.06 mg/dL. It also gave a GLC ([…], time 14 day) of 205 mg/dL, an IP ([…], time 14 day) of 7.5 mg/dL and a K ([…], time 14 day) of 3.8 meq/L. It also gave an LDH ([…], time 14 day) of 161.8 IU/L, a Na ([…], time 14 day) of 143.4 meq/L and a PL ([…], time 14 day) of 152.2 mg/dL. It also gave an RALB ([…], time 14 day) of 3.4 g/dL, a TBIL ([…], time 14 day) of 0.098 mg/dL and a TC ([…], time 14 day) of 78.8 mg/dL. It also gave a TG ([…], time 14 day) of 94.2 mg/dL, a TP ([…], time 14 day) of 5.7 g/dL and a gamma-GTP ([…], time 14 day) of 1 IU/L. For the same compound, the ALP ([…], time 28 day) was 625.8 IU/L, the ALT ([…], time 28 day) was 44 IU/L and the AST ([…], time 28 day) was 71.6 IU/L. It also gave a BUN ([…], time 28 day) of 17.6 mg/dL, a CRE ([…], time 28 day) of 0.5 mg/dL and a DBIL ([…], time 28 day) of 0.072 mg/dL. For the same compound, the GLC ([…], time 28 day) was 202.8 mg/dL, the IP ([…], time 28 day) was 7.5 mg/dL and the K ([…], time 28 day) was 3.8 meq/L. The LDH ([…], time 28 day) was 152.4 IU/L, the Na ([…], time 28 day) was 142.2 meq/L and the PL ([…], time 28 day) was 154.8 mg/dL. It also gave an RALB ([…], time 28 day) of 3.6 g/dL, a TBIL ([…], time 28 day) of 0.1 mg/dL and a TC ([…], time 28 day) of 76.8 mg/dL. It also gave a TG ([…], time 28 day) of 82.8 mg/dL, a TP ([…], time 28 day) of 6.3 g/dL and a gamma-GTP ([…], time 28 day) of 0.8 IU/L.
